Results from patent US9156872B2, “2′-azido substituted nucleoside derivatives and methods of use thereof for the treatment of viral diseases” (priority 2011, dated 2015).
Read-outs that look alike come from different tables or passages of the source.

Legend:
replicon cells (1b-Con1) = experiment: Replicon activity assay (1b-Con1 replicon cells, real-time RT-PCR); format: cell-based, HCV; conditions: Hepatitis C virus, 72 h, read-out: Replicon (1b) EC50
replicon cells [1] = test system: replicon cells
replicon cells [2] = experiment: Cytotoxicity in replicon cells (MTS assay, CellTiter 96); conditions: CC50, MTS assay, three days post dosing
[3] = molecular target: HCV NS5B RNA-dependent RNA polymerase (1b-BKΔ55) (Hepatitis C virus genotype 1b, UniProt P26663); experiment: biochemical
Sequence of HCV NS5B RNA-dependent RNA polymerase (1b-BKΔ55) (P26663 2420-2955 limits assumed, stated change not applied): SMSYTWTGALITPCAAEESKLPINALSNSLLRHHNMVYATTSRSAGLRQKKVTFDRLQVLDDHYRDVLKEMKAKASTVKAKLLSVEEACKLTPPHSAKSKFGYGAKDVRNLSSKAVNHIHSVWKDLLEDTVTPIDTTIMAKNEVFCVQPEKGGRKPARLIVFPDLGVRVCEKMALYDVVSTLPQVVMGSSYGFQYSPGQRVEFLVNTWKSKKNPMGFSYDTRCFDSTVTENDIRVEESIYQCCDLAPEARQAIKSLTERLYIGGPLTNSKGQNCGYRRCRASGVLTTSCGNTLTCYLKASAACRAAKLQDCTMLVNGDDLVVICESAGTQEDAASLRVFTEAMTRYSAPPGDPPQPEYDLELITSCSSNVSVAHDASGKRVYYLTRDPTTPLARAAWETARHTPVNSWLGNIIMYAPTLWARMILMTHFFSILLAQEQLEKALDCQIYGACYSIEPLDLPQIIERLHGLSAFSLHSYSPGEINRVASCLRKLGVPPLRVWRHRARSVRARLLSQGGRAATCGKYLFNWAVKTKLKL

SMILES | EC50 (replicon cells (1b-Con1)) [µM] | Cytotoxicity (replicon cells [1]) [µM] | EC50 (replicon cells (1b-Con1); 1b-Con1 replicon cells, three days post-dosing) [µM] | Cytotoxicity (replicon cells [2]) [µM] | IC50 [3] [µM]
CCOC(=O)[C@H](C)NP(=O)(OC[C@H]1O[C@@H](n2cnc3c(OCC)nc(N)nc32)[C@](C)(N=[N+]=[N-])[C@@H]1O)Oc1ccccc1 (some centres unmarked) [drawing 881] | 1 | >100 |  |  | 
COc1nc(N)nc2c1ncn2C1O[C@@H]2COP(=O)(OC(C)C)O[C@H]2[C@@]1(C)N=[N+]=[N-] (some centres unmarked) |  |  | 8.3 | >100 | 
CC(C)COC(=O)[C@H](C)NP(=O)(OC[C@H]1O[C@@H](n2ccc(=O)[nH]c2=O)[C@](C)(N=[N+]=[N-])[C@@H]1O)Oc1ccccc1 (some centres unmarked) [drawing 892] | 0.8 | 55 |  |  | 
CCOC(=O)c1ccccc1OP(=O)(N[C@@H](C)C(=O)OC)OC[C@H]1O[C@@H](n2ccc(=O)[nH]c2=O)[C@](C)(N=[N+]=[N-])[C@@H]1O (some centres unmarked) | 2.8 | >100 |  |  | 
CCCC(CCC)COC(=O)[C@H](C)NP(=O)(OC[C@H]1O[C@@H](n2ccc(=O)[nH]c2=O)[C@](C)(N=[N+]=[N-])[C@@H]1O)Oc1ccccc1 (some centres unmarked) [drawing 886] | 2.1 | 83 |  |  | 
C[C@@]1(N=[N+]=[N-])[C@H](O)C(COP(=O)(O)OP(=O)(O)OP(=O)(O)O)O[C@H]1n1ccc(N)nc1=O (some centres unmarked) [Compound 75] |  |  |  |  | 10
CC(C)OC(=O)[C@H](C)NP(=O)(OC[C@H]1O[C@@H](n2ccc(=O)[nH]c2=O)[C@](C)(N=[N+]=[N-])[C@@H]1O)Oc1ccc(Cl)c(Cl)c1 (some centres unmarked) [drawing 890] | 7.6 | 42 |  |  | 
CCOC(=O)[C@H](C)NP(=O)(OC[C@H]1O[C@@H](n2cnc3c(OC)nc(N)nc32)[C@](C)(N=[N+]=[N-])C1O)Oc1ccc(Cl)cc1 (some centres unmarked) | 1.2 | >100 |  |  | 
CCOC(=O)[C@H](C)NP(=O)(OC[C@H]1O[C@@H](n2cnc3c(N4CCC4)nc(N)nc32)[C@](C)(N=[N+]=[N-])[C@@H]1O)Oc1ccccc1 (some centres unmarked) [drawing 882] | 1.5 | >100 |  |  | 
CCOc1nc(N)nc2c1ncn2[C@@H]1O[C@H](COP(=O)(N[C@@H](C)C(=O)OC)Oc2ccc(Cl)cc2)[C@@H](O)[C@@]1(C)N=[N+]=[N-] (some centres unmarked) [drawing 887] | 0.9 | 25 |  |  | 
C[C@@]1(N=[N+]=[N-])[C@H](O)[C@@H](COP(=O)(O)OP(=O)(O)OP(=O)(O)O)O[C@H]1n1ccc(=O)[nH]c1=O [Compound 74] |  |  |  |  | 55
C[C@@]1(N=[N+]=[N-])[C@H](O)C(COP(=O)(O)OP(=O)(O)OP(=O)(O)O)O[C@H]1n1cnc2c(=O)[nH]c(N)nc21 (some centres unmarked) [Compound 76] |  |  |  |  | 1.7
CC(C)OC(=O)[C@H](C)NP(=O)(OC[C@H]1O[C@@H](n2ccc(=O)[nH]c2=O)[C@](C)(N=[N+]=[N-])[C@@H]1O)Oc1ccccc1 (some centres unmarked) | 3.1 | >100 |  |  | 
COC(=O)[C@H](C)NP(=O)(OC[C@H]1O[C@@H](n2cnc3c(NC4CC4)nc(N)nc32)[C@](C)(N=[N+]=[N-])[C@@H]1O)Oc1ccccc1Cl (some centres unmarked) [drawing 883] | 1.4 | >100 |  |  | 
CCOC(=O)[C@H](C)NP(=O)(OC[C@H]1O[C@@H](n2cnc3c(OC)nc(N)nc32)[C@](C)(N=[N+]=[N-])[C@@H]1O)Oc1ccccc1 (some centres unmarked) [drawing 880] | 0.4 | >100 |  |  | 
COC(=O)[C@H](C)NP(=O)(OC[C@H]1O[C@@H](n2ccc(N)nc2=O)[C@](C)(N=[N+]=[N-])[C@@H]1O)Oc1ccc(Cl)c(Cl)c1 (some centres unmarked) | 35 | >100 |  |  | 
C[C@H](NP(=O)(OC[C@H]1O[C@@H](n2ccc(=O)[nH]c2=O)[C@](C)(N=[N+]=[N-])[C@@H]1O)Oc1ccc2c(c1)OCO2)C(=O)OCc1ccccc1 (some centres unmarked) [drawing 888] | 1.2 |  |  |  | 
CC(C)OC(=O)[C@H](C)NP(=O)(OC[C@H]1O[C@@H](n2ccc(N)nc2=O)[C@](C)(N=[N+]=[N-])[C@@H]1O)Oc1ccccc1Cl (some centres unmarked) [drawing 885] | 1.3 | >100 |  |  | 
